Experimental data taken from the CheMixHub ionic liquid set.
± gives the uncertainty stated by the source.

Assay: xn = mol fraction of the nth substance listed

SMILES: CN(C)C=O + CCCC[n+]1ccn(C)c1.F[P-](F)(F)(F)(F)F
- viscosity (303.15 K, 101 kPa, x1 = 1): 0.82 ± 0.02 mPa·s

SMILES: CCCC[n+]1ccn(C)c1.O=S(=O)([N-]S(=O)(=O)C(F)(F)F)C(F)(F)F + CCCC[n+]1ccn(C)c1.N#C[C-](C#N)C#N
- viscosity (283.15 K, 100 kPa, x1 = 1): 106.8 ± 5.5 mPa·s
- viscosity (288.15 K, 100 kPa, x1 = 1): 82.2 ± 4.2 mPa·s
- viscosity (293.15 K, 100 kPa, x1 = 1): 64.5 ± 3.3 mPa·s
- viscosity (298.15 K, 100 kPa, x1 = 1): 51.6 ± 2.6 mPa·s
- viscosity (303.15 K, 100 kPa, x1 = 1): 41.9 ± 2.1 mPa·s
- viscosity (308.15 K, 100 kPa, x1 = 1): 34.6 ± 1.7 mPa·s
- viscosity (313.15 K, 100 kPa, x1 = 1): 28.9 ± 1.5 mPa·s
- viscosity (318.15 K, 100 kPa, x1 = 1): 24.5 ± 1.2 mPa·s
- viscosity (323.15 K, 100 kPa, x1 = 1): 20.9 ± 1.1 mPa·s
- viscosity (328.15 K, 100 kPa, x1 = 1): 18.05 ± 0.91 mPa·s
- viscosity (333.15 K, 100 kPa, x1 = 1): 15.72 ± 0.79 mPa·s
- viscosity (338.15 K, 100 kPa, x1 = 1): 13.8 ± 0.69 mPa·s
- viscosity (343.15 K, 100 kPa, x1 = 1): 12.2 ± 0.61 mPa·s
- viscosity (348.15 K, 100 kPa, x1 = 1): 10.86 ± 0.55 mPa·s
- viscosity (353.15 K, 100 kPa, x1 = 1): 9.72 ± 0.49 mPa·s
- viscosity (358.15 K, 100 kPa, x1 = 1): 8.75 ± 0.44 mPa·s
- viscosity (363.15 K, 100 kPa, x1 = 1): 7.93 ± 0.4 mPa·s

SMILES: CCCCCCO + CCCC[n+]1ccn(C)c1.N#C[S-]
- viscosity (308.15 K, 101 kPa, x1 = 1): 3.33 ± 0.01 mPa·s
- viscosity (338.15 K, 101 kPa, x1 = 1): 1.57 ± 0.01 mPa·s

SMILES: CN1CCCC1=O + CCCC[n+]1ccn(C)c1.N#C[S-]
- viscosity (288.15 K, 101 kPa, x2 = 0): 2.133 ± 0.023 mPa·s
- viscosity (298.15 K, 101 kPa, x2 = 0): 1.791 ± 0.02 mPa·s
- viscosity (308.15 K, 101 kPa, x2 = 0): 1.549 ± 0.018 mPa·s
- viscosity (318.15 K, 101 kPa, x2 = 0): 1.285 ± 0.017 mPa·s

SMILES: CCCCCCO + CCCC[n+]1ccn(C)c1.O=S(=O)([N-]S(=O)(=O)C(F)(F)F)C(F)(F)F
- viscosity (298 K, 100 kPa, x2 = 0): 4.502 ± 0.07 mPa·s
- electrical conductivity (298 K, 100 kPa, x2 = 0.6): 0.5605 ± 0.0056 S/m
- electrical conductivity (298 K, 100 kPa, x2 = 0.7): 0.491 ± 0.0049 S/m
- viscosity (298 K, 100 kPa, x2 = 0.7): 26.59 ± 0.6 mPa·s
- electrical conductivity (298 K, 100 kPa, x2 = 0.8): 0.4635 ± 0.0046 S/m
- viscosity (298 K, 100 kPa, x2 = 0.8006): 32.43 ± 0.77 mPa·s
- viscosity (298 K, 100 kPa, x2 = 0.899): 40.3 ± 1 mPa·s
- electrical conductivity (298 K, 100 kPa, x2 = 0.9): 0.427 ± 0.043 S/m

SMILES: CCCC[n+]1ccn(C)c1.F[P-](F)(F)(F)(F)F + CCCC[n+]1ccn(C)c1.O=S(=O)([N-]S(=O)(=O)C(F)(F)F)C(F)(F)F
- viscosity (313.15 K, 100 kPa, x1 = 0.5): 49.8 ± 1 mPa·s

SMILES: CCOC(C)=O + CCCC[n+]1ccn(C)c1.O=S(=O)([N-]S(=O)(=O)C(F)(F)F)C(F)(F)F
- viscosity (298.15 K, 101 kPa, x1 = 0.092): 40 ± 1 mPa·s
- viscosity (298.15 K, 101 kPa, x1 = 0.2303): 26.5 ± 0.6 mPa·s
